Assay results as given in patent US5852018A, “Pharmaceutical piperazine compounds” (Xenova Limited, priority 1994, dated 1998).
pIC50: −log10 of the molar value.

test system: AR 1.0 cells; assay: Drug accumulation assay (tritiated daunorubicin) in MDR resistant AR 1.0 cells; assay type: cell-based; conditions: Mus musculus, 1 h, DNR 2 μM, 100% = accumulation with 100 μM Verapamil, read-out: MAX accumulation (% 100 μm VRP)
Protocol: The EMT6 mouse mammary carcinoma cell line and the MDR resistant subline AR 1.0 were cultured in RPMI 1640 medium containing 10% foetal calf serum and 2 mM glutamine at 37° C. in 5% CO2 . Cells were passaged between 1 in 200 and 1 in 2000 in the case of the parental cell line and between 1 in 20 and 1 in 200 in the case of the MDR resistant subline, after trypsinisation (0.25% trypsin, 0.2 gl^-1, EDTA).
AR 1.0 cells were seeded into 96 well opaque culture plates (Canberra Packard). The assay medium contained a mixture of tritiated Daunorubicin (DNR), a cytotoxic agent, and unlabelled DNR (0.25μ Ci/ml; 2 μM). Compounds of formula A were serially diluted in assay medium over a range of concentrations from 100 nM to 100 μM. The cells were incubated at 37° C. for 1 hr before washing and counting of cell associated radioactivity. Each assay included a titration of the known resistance modifying agent Verapamil as positive control. Results were expressed as % maximum accumulation where 100% accumulation is that observed in the presence of 100 μM Verapamil.

Row | SMILES | Emax [%]
1 | CC(C)Oc1n/c(=C\c2ccccc2)c(=O)n(C)/c1=C\c1ccccc1 [Compound 1819, (3Z,6Z)-3,6-Dibenzylidene-5-isopropoxy-1-methyl-3,6-dihydro-2-pyrazinone] | 23
2 | CCOc1n/c(=C\c2ccccc2)c(=O)n(C)/c1=C\c1ccccc1 [Compound 1801, (3Z,6Z)-3,6-Dibenzylidene-5-ethoxy-1-methyl-3,6-dihydro-2-pyrazinone] | 40
3 | CC(=O)OCCCCOc1n/c(=C\c2ccccc2)c(=O)n(C)/c1=C\c1ccccc1 [Compound 1904, (3Z,6Z)-5-(4-Acetoxybutoxy)-3,6-dibenzylidene-1-methyl-3,6-dihydro-2-pyrazinone] | 47
4 | COC(=O)Cn1c(=O)/c(=C/c2ccc(OC)cc2)[nH]c(=O)/c1=C/c1ccccc1 [Compound 1490, Methyl (3Z,6Z)-6-benzylidene-3-(4-methoxybenzylidene)-2,5-dioxo-1-piperazinylacetate] | 63.6
5 | Cn1c(=O)/c(=C/c2ccccc2)n(CCBr)c(=O)/c1=C/c1ccccc1 [Compound 1803, (3Z,6Z)-3,6-Dibenzylidene-1-(2-bromoethyl)-4-methyl-2,5-piperazinedione] | 50
6 | O=c1/c(=C/c2ccccc2)n(Cc2ccccc2)c(=O)/c(=C/c2ccccc2)n1Cc1ccccc1 [Compound 1906, (3Z,6Z)-1,4-Dibenzyl-3,6-dibenzylidene-2,5-piperazinedione] | 34
7 | C=CCCOc1n/c(=C\c2ccccc2)c(=O)n(C)/c1=C\c1ccccc1 [Compound 1826, (3Z,6Z)-3,6-Dibenzylidene-5-(3-butenyloxy)-1-methyl-3,6-dihydro-2-pyrazinone] | 40
8 | C=CCOc1n/c(=C\c2ccccc2)c(=O)n(C)/c1=C\c1ccccc1 [Compound 1864, (3Z,6Z)-5-Allyloxy-3,6-dibenzylidene-1-methyl-3,6-dihydro-2-pyrazinone] | 45
9 | COc1ccc(/C=c2/c(=O)[nH]/c(=C\c3ccccc3)c(=O)n2CC(=O)N(C)C)cc1 [Compound 1614, N,N,-Dimethyl-(3Z,6Z)-3-benzylidene-6-(4-methoxybenzylidene)-2,5-dioxo-1-piperazinylacetamide] | 25
10 | COc1n/c(=C\c2ccccc2)c(=O)n(C)/c1=C\c1ccccc1 [Compound 1771] | 60
11 | CC(C)COc1n/c(=C\c2ccccc2)c(=O)n(C)/c1=C\c1ccccc1 [Compound 1821, (3Z,6Z)-3,6-Dibenzylidene-5-isobutoxy-1-methyl-3,6-dihydro-2-pyrazinone] | 35
12 | Cn1c(=O)/c(=C/c2ccccc2)nc(OCN2C(=O)c3ccccc3C2=O)/c1=C/c1ccccc1 [Compound 1905, (3Z,6Z)-3,6-Dibenzylidene-1-methyl-5-phthalimidomethoxy-3,6-dihydro-2-pyrazinone] | 29
13 | COc1ccc(/C=c2\[nH]c(=O)/c(=C/c3ccccc3)n(CC(=O)N3CCCC3)c2=O)cc1 [Compound 1526, N,N-Tetramethylene-(3Z,6Z)-6-benzylidene-3-(4-methoxybenzylidene)-2,5-dioxo-1-piperazinylacetamide] | 23.3
14 | CC=CCOc1n/c(=C\c2ccccc2)c(=O)n(C)/c1=C\c1ccccc1 [Compound 1861, (3Z,6Z)-3,6-Dibenzylidene-5-(2-butenyloxy)-1-methyl-3,6-dihydro-2-pyrazinone] | 46
15 | Cn1c(=O)/c(=C/c2ccccc2)nc(OCC2CCCCC2)/c1=C/c1ccccc1 [Compound 1780] | 20
16 | Cn1c(=O)/c(=C/c2ccccc2)nc(OCC#N)/c1=C/c1ccccc1 [Compound 1827, (3Z,6Z)-3,6-Dibenzylidene-1-methyl-2-oxo-1,2,3,6-tetrahydro-5-pyrazinyloxyacetonitrile] | 35
17 | Cn1c(=O)/c(=C/c2ccccc2)nc(OCCc2ccccc2)/c1=C/c1ccccc1 [Compound 1820, (3Z,6Z)-3,6-Dibenzylidene-1-methyl-5-(2-phenethoxy)-3,6-dihydro-2-pyrazinone] | 34
18 | COc1ccc(/C=c2\nc(OCC3CC3)/c(=C/c3ccccc3)n(C)c2=O)cc1 [Compound 1745, (3Z,6Z)-6-Benzylidene-5-cyclopropylmethoxy-3-(4-methoxybenzylidene)-1-methyl-3,6-dihydro-2-pyrazinone] | 35

same assay, conditions: Mus musculus, DNR 2 μM, 37° C., 1 hr

Row | pIC50 | SMILES
19 | 5.10 | CC=CCn1c(=O)/c(=C/c2ccccc2)n(C)c(=O)/c1=C/c1ccccc1 [Compound 1862, (3Z,6Z)-3,6-Dibenzylidene-1-(but-2-enyl)-4-methyl-2,5-piperazinedione]
20 | 5.00 | Cn1c(=O)/c(=C/c2ccccc2)n(CC=CCBr)c(=O)/c1=C/c1ccccc1 [Compound 1860]
21 | 5.30 | COc1ccc(/C=c2/c(=O)n(Cc3ccccc3)/c(=C\c3c(Cl)cccc3Cl)c(=O)n2C)cc1 [Compound 1878, (3Z,6Z)-1-Benzyl-6-(2,6-dichlorobenzylidene)-3-(4-methoxybenzylidene)-4-methyl-2,5-piperazinedione]
22 | 5.05 | Cn1c(=O)/c(=C/c2ccccc2)nc(OCC2OCCO2)/c1=C/c1ccccc1 [Compound 1822, (3Z,6Z)-3,6-Dibenzylidene-1-methyl-2-oxo-1,2,3,6-tetrahydro-5-pyrazinyloxyacetaldehyde ethylene acetal]
23 | 4.52 | COC(=O)Cn1c(=O)/c(=C/c2ccc(OC)cc2)[nH]c(=O)/c1=C/c1ccccc1 [Compound 1490, Methyl (3Z,6Z)-6-benzylidene-3-(4-methoxybenzylidene)-2,5-dioxo-1-piperazinylacetate]
24 | 5.70 | COc1ccc(/C=c2/c(=O)n(C)/c(=C\c3ccccc3[N+](=O)[O-])c(=O)n2Cc2ccccc2)cc1 [Compound 1879, (3Z,6Z)-1-Benzyl-6-(4-methoxybenzylidene)-4-methyl-3-(2-nitrobenzylidene)-2,5-piperazinedione]
25 | 4.22 | Cn1c(=O)/c(=C/c2ccccc2)n(CC#N)c(=O)/c1=C/c1ccccc1 [Compound 1858, ((3Z,6Z)-3,6-Dibenzylidene-4-methyl-2,5-dioxo-1-piperazinyl)acetonitrile]
26 | 4.46 | Cn1c(=O)/c(=C/c2ccccc2)n(CCO)c(=O)/c1=C/c1ccccc1 [Compound 1854, (3Z,6Z)-3,6-Dibenzylidene-1-(2-hydroxyethyl)-4-methyl-2,5-piperazinedione]
27 | 4.82 | Cn1c(=O)/c(=C/c2ccccc2)n(CCc2ccccc2)c(=O)/c1=C/c1ccccc1 [Compound 1856, (3Z,6Z)-3,6-Dibenzylidene-4-methyl-1-phenethyl-2,5-piperazinedione]
28 | 4.10 | Cn1c(=O)/c(=C/c2ccccc2)n(CCBr)c(=O)/c1=C/c1ccccc1 [Compound 1803, (3Z,6Z)-3,6-Dibenzylidene-1-(2-bromoethyl)-4-methyl-2,5-piperazinedione]
29 | 5.52 | CN(C)CCCOc1n/c(=C\c2ccccc2)c(=O)n(C)/c1=C\c1ccccc1 [Compound 1900, (3Z,6Z)-3,6-Dibenzylidene-5-(3-dimethylaminopropoxy)-1-methyl-3,6-dihydro-2-pyrazinone]
30 | 4.96 | Cn1c(=O)/c(=C/c2ccccc2)nc(OCCN2C(=O)c3ccccc3C2=O)/c1=C/c1ccccc1 [Compound 1902, (3Z,6Z)-3,6-Dibenzylidene-1-methyl-5-(2-phthalimidoethoxy)-3,6-dihydro-2-pyrazinone]
31 | 5.70 | Cn1c(=O)/c(=C/c2ccccc2)n(Cc2cccc([N+](=O)[O-])c2)c(=O)/c1=C/c1ccccc1 [Compound 1936, (3Z,6Z)-3,6-Dibenzylidene-1-methyl-4-(3-nitrobenzylidene)-2,5-piperazinedione]
32 | 5.00 | Cn1c(=O)/c(=C/c2ccccc2)nc(OCCO)/c1=C/c1ccccc1 [Compound 1863, (3Z,6Z)-3,6-Dibenzylidene-5-(2-hydroxyethoxy)-1-methyl-3,6-dihydro-2-pyrazinone]
33 | 4.15 | COc1n/c(=C\c2ccccc2)c(=O)n(C)/c1=C\c1ccccc1 [Compound 1771]
34 | 4.92 | Cn1c(=O)/c(=C/c2ccccc2)nc(OCc2ccncc2)/c1=C/c1ccccc1 [Compound 1901, (3Z,6Z)-3,6-Dibenzylidene-1-methyl-5-(4-pyridyl)methoxy-3,6-dihydro-2-pyrazinone]
35 | 4.82 | Cn1c(=O)/c(=C/c2ccccc2)nc(OCC=CCBr)/c1=C/c1ccccc1 [Compound 1859, (3Z,6Z)-3,6-Dibenzylidene-5-(4-bromo-2-butenyloxy)-1-methyl-3,6-dihydro-2-pyrazinone]
36 | 5.40 | Cn1c(=O)/c(=C/c2ccccc2)n(Cc2ccc([N+](=O)[O-])cc2)c(=O)/c1=C/c1ccccc1 [Compound 1939, (3Z,6Z)-3,6-Dibenzylidene-1-methyl-4-(4-nitrobenzylidene)-2,5-piperazinedione]
37 | 5.00 | CC(C)Cn1c(=O)/c(=C/c2ccccc2)n(C)c(=O)/c1=C/c1ccccc1 [Compound 1857, (3Z,6Z)-3,6-Dibenzylidene-1-isobutyl-4-methyl-2,5-piperazinedione]

Row | SMILES | pIC50
38 | Cn1c(=O)/c(=C/c2ccccc2)nc(OCCCCN2C(=O)c3ccccc3C2=O)/c1=C/c1ccccc1 [Compound 1903, (3Z,6Z)-3,6-Dibenzylidene-1-methyl-5-(4-phthalimidobutoxy)-3,6-dihydro-2-pyrazinone] | 5.05

test system: AR 1.0 cells; assay: Proliferation assay with and without fixed concentration of doxorubicin (sulphorhodamine B); assay type: cell-based, mouse; conditions: Mus musculus, 96 h; compound alone, four days; read-out: COMPOUND TOXICITY (IC50)
Description: Compounds of formula A were examined for their ability to potentiate the toxicity of doxorubicin in AR 1.0 cells.

Row | SMILES | pIC50
39 | Cn1c(=O)/c(=C/c2ccccc2)nc(OCC2OCCO2)/c1=C/c1ccccc1 [Compound 1822, (3Z,6Z)-3,6-Dibenzylidene-1-methyl-2-oxo-1,2,3,6-tetrahydro-5-pyrazinyloxyacetaldehyde ethylene acetal] | 5.30
40 | COC(=O)Cn1c(=O)/c(=C/c2ccc(OC)cc2)[nH]c(=O)/c1=C/c1ccccc1 [Compound 1490, Methyl (3Z,6Z)-6-benzylidene-3-(4-methoxybenzylidene)-2,5-dioxo-1-piperazinylacetate] | 4.52

same assay, conditions: cytotoxic agent 1.00 μg/ml, four days; 5760 min; read-out: TOXICITY WITH CYTOTOXIC AGENT (IC 50)

Row | SMILES | pIC50
41 | COC(=O)Cn1c(=O)/c(=C/c2ccc(OC)cc2)[nH]c(=O)/c1=C/c1ccccc1 [Compound 1490, Methyl (3Z,6Z)-6-benzylidene-3-(4-methoxybenzylidene)-2,5-dioxo-1-piperazinylacetate] | 5.70

same assay, conditions: fixed concentration 0.5-1 μM

Row | SMILES | toxicity of doxorubicin alone to AR 1.0 cells
42 | COc1cccc2c1C(=O)c1c(O)c3c(c(O)c1C2=O)C[C@@](O)(C(=O)CO)C[C@@H]3O[C@H]1C[C@H](N)[C@H](O)[C@H](C)O1 [doxorubicin, reference compound] | non-toxic
